The values that follow come from patent US10118930B2, “Piperidinylpyrazolopyrimidinones and their use” (BAYER PHARMA AKTIENGESELLSCHAFT, priority 2015, dated 2018).

In the experiment the test system is clot lysis (fibrinolysis) in diluted human citrated plasma, tPA-induced. Put plainly: Plasma-based clot lysis assay (5%). The experiment is classed as biochemical. The settings on record: human citrated platelet-poor plasma 5%, fibrinogen 3 μM, CaCl2 10 mM, tPA 0.2 nM, 37° C., OD at 405 nm. The procedure, abridged:
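Clot formation and breakdown triggered by CaCl2 (10 mM final) plus tPA (0.2 nM final) at 37° C, in 5% diluted human plasma supplemented with 3 μM fibrinogen (HEPES/NaCl/Brij buffer, pH 7). IC50 obtained from time courses relative to a blank control.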

SMILES strings stand for the structures. pIC50: −log10 of the molar value. Counter-ions that a name gives are not always drawn.

In the case of `COc1ccccc1Cc1nnc(-c2cnn3c(C4CCNCC4)cc(=O)[nH]c23)o1` [Example 280, 3-[5-(2-methoxybenzyl)-1,3,4-oxadiazol-2-yl]-7-(piperidin-4-yl)pyrazolo[1,5-a]pyrimidin-5(4H)-one hydrochloride], the pIC50 (in general, the negative decadic logarithm of the IC50, by convention in mol/L) is 7.54. Then `O=c1cc(C2CCNCC2)n2ncc(-c3nnc(CCN4CCOCC4)o3)c2[nH]1` [Example 282, 3-{5-[2-(morpholin-4-yl)ethyl]-1,3,4-oxadiazol-2-yl}-7-(piperidin-4-yl)pyrazolo[1,5-a]pyrimidin-5(4H)-one hydrochloride], with 7.47; and `O=c1cc(C2CCNCC2)n2ncc(-c3nnc(Cc4ccc(Cl)cc4)o3)c2[nH]1` [Example 284, 3-[5-(4-chlorobenzyl)-1,3,4-oxadiazol-2-yl]-7-(piperidin-4-yl)pyrazolo[1,5-a]pyrimidin-5(4H)-one hydrochloride], with 7.70; and `O=c1cc(C2CCNCC2)n2ncc(-c3nnc(O)o3)c2[nH]1` [Example 286, 3-(5-hydroxy-1,3,4-oxadiazol-2-yl)-7-(piperidin-4-yl)pyrazolo[1,5-a]pyrimidin-5(4H)-one hydrochloride], with 7.48. Then `NC(=S)c1cnn2c(C3CCNCC3)cc(=O)[nH]c12` [Example 287, 5-oxo-7-(piperidin-4-yl)-4,5-dihydropyrazolo[1,5-a]pyrimidine-3-carbothioamide hydrochloride], with 7.43; and `O=c1cc(C2CCNCC2)n2ncc(-c3nnc(-c4cccs4)o3)c2[nH]1` [Example 288, 7-(piperidin-4-yl)-3-[5-(thiophen-2-yl)-1,3,4-oxadiazol-2-yl]pyrazolo[1,5-a]pyrimidin-5 (4H)-one hydrochloride], with 7.57; and `O=c1cc(C2CCNCC2)n2ncc(-c3nnc(CC(F)(F)F)o3)c2[nH]1` [Example 289, 7-(piperidin-4-yl)-3-[5-(2,2,2-trifluoroethyl)-1,3,4-oxadiazol-2-yl]pyrazolo[1,5-a]pyrimidin-5(4H)-one hydrochloride], with 7.57. `O=c1cc(C2CCNCC2)n2ncc(-c3nnc(-c4ccccc4Cl)o3)c2[nH]1` [Example 290, 3-[5-(2-chlorophenyl)-1,3,4-oxadiazol-2-yl]-7-(piperidin-4-yl)pyrazolo[1,5-a]pyrimidin-5(4H)-one hydrochloride] had a pIC50 of 7.59.

`O=c1cc(C2CCNCC2)n2ncc(-c3nnc(CN4CCCCC4)o3)c2[nH]1` [Example 291, 7-(piperidin-4-yl)-3-[5-(piperidin-1-ylmethyl)-1,3,4-oxadiazol-2-yl]pyrazolo[1,5-a]pyrimidin-5(4H)-one hydrochloride] had a pIC50 of 7.07. For the compound `O=c1cc(C2CCNCC2)n2ncc(-c3nnc(C4CCCCC4)o3)c2[nH]1` [Example 293, 3-(5-cyclohexyl-1,3,4-oxadiazol-2-yl)-7-(piperidin-4-yl)pyrazolo[1,5-a]pyrimidin-5 (4H)-one hydrochloride], the pIC50 is 7.51. Then `O=c1cc(C2CCNCC2)n2ncc(-c3nnc(C4CCC4)o3)c2[nH]1` [Example 294, 3-(5-cyclobutyl-1,3,4-oxadiazol-2-yl)-7-(piperidin-4-yl)pyrazolo[1,5-a]pyrimidin-5 (4H)-one hydrochloride], with 7.43. Then `CCCCc1nnc(-c2cnn3c(C4CCNCC4)cc(=O)[nH]c23)o1` [Example 295, 3-(5-butyl-1,3,4-oxadiazol-2-yl)-7-(piperidin-4-yl)pyrazolo[1,5-a]pyrimidin-5(4H)-one hydrochloride], with 7.46; and `Cc1nn2c(C3CCNCC3)cc(=O)[nH]c2c1-c1nc(C(C)(C)C)no1` [Example 296, 3-(3-tert-butyl-1,2,4-oxadiazol-5-yl)-2-methyl-7-(piperidin-4-yl)pyrazolo[1,5-a]pyrimidin-5(4H)-one hydrochloride], with 7.64; and `COCCc1noc(-c2c(C)nn3c(C4CCNCC4)cc(=O)[nH]c23)n1` [Example 297, 3-[3-(2-methoxyethyl)-1,2,4-oxadiazol-5-yl]-2-methyl-7-(piperidin-4-yl)pyrazolo[1,5-a]pyrimidin-5(4H)-one hydrochloride], with 7.57.

Regarding `Cc1nn2c(C3CCNCC3)cc(=O)[nH]c2c1-c1nc(Cc2ccc(F)cc2)no1` [Example 299, 3-[3-(4-fluorobenzyl)-1,2,4-oxadiazol-5-yl]-2-methyl-7-(piperidin-4-yl)pyrazolo[1,5-a]pyrimidin-5(4H)-one hydrochloride], the pIC50 is 7.60. As for `CCc1noc(-c2c(C)nn3c(C4CCNCC4)cc(=O)[nH]c23)n1` [Example 300, 3-(3-ethyl-1,2,4-oxadiazol-5-yl)-2-methyl-7-(piperidin-4-yl)pyrazolo[1,5-a]pyrimidin-5(4H)-one hydrochloride], the figure is 7.80; as for `Cc1nn2c(C3CCNCC3)cc(=O)[nH]c2c1-c1nc(CCOC(C)(C)C)no1` [Example 302, 3-[3-(2-tert-butoxyethyl)-1,2,4-oxadiazol-5-yl]-2-methyl-7-(piperidin-4-yl)pyrazolo[1,5-a]pyrimidin-5(4H)-one hydrochloride], 8.22. The compound `CC(C)(C)CC1CC(c2cc(=O)[nH]c3c(-c4nc(C(C)(C)C)no4)cnn23)CCN1` (stereo not drawn) [Example 303, 3-(3-tert-butyl-1,2,4-oxadiazol-5-yl)-7-[2-(2,2-dimethylpropyl)piperidin-4-yl]pyrazolo[1,5-a]pyrimidin-5(4H)-one hydrochloride] showed a pIC50 of 7.42. Turning to `CC(C)CCc1csc(-c2cnn3c(C4CCNCC4)cc(=O)[nH]c23)n1` [Example 304, 3-[4-(3-methylbutyl)-1,3-thiazol-2-yl]-7-(piperidin-4-yl)pyrazolo[1,5-a]pyrimidin-5 (4H)-one hydrochloride], the pIC50 was 7.62. As for `COc1ccc(C2(c3nnc(-c4cnn5c(C6CCNCC6)cc(=O)[nH]c45)o3)CC2)cc1` [Example 305, 3-{5-[1-(4-methoxyphenyl)cyclopropyl]-1,3,4-oxadiazol-2-yl}-7-(piperidin-4-yl)pyrazolo[1,5-a]pyrimidin-5(4H)-one hydrochloride], the figure is 7.70; as for `Cc1ccc(-c2noc(-c3c(C)nn4c(C5CCNCC5)cc(=O)[nH]c34)n2)cc1` [Example 306, 2-methyl-3-[3-(4-methylphenyl)-1,2,4-oxadiazol-5-yl]-7-(piperidin-4-yl)pyrazolo[1,5-a]pyrimidin-5(4H)-one hydrochloride], 7.96; as for `CCc1csc(-c2cnn3c(C4CCNCC4)cc(=O)[nH]c23)n1` [Example 308, 3-(4-ethyl-1,3-thiazol-2-yl)-7-(piperidin-4-yl)pyrazolo[1,5-a]pyrimidin-5(4H)-one hydrochloride], 7.96. In the case of `Cc1ccc(-c2csc(-c3cnn4c(C5CCNCC5)cc(=O)[nH]c34)n2)cc1` [Example 309, 3-[4-(4-methylphenyl)-1,3-thiazol-2-yl]-7-(piperidin-4-yl)pyrazolo[1,5-a]pyrimidin-5(4H)-one hydrochloride], the pIC50 is 7.39. As for `O=c1cc(C2CCNCC2)n2ncc(-c3nc(C4CC4)cs3)c2[nH]1` [Example 311, 3-(4-cyclopropyl-1,3-thiazol-2-yl)-7-(piperidin-4-yl)pyrazolo[1,5-a]pyrimidin-5(4H)-one hydrochloride], the figure is 7.74. Then `Cc1ccc(-c2csc(-c3cnn4c(C5CCNCC5)cc(=O)[nH]c34)n2)c(C)c1` [Example 312, 3-[4-(2,4-dimethylphenyl)-1,3-thiazol-2-yl]-7-(piperidin-4-yl)pyrazolo[1,5-a]pyrimidin-5(4H)-one hydrochloride], with 7.66; and `Cc1cc(CN(C)C(=O)c2cnn3c(C4CCNCC4)cc(=O)[nH]c23)no1` [Example 316, N-methyl-N-[(5-methyl-1,2-oxazol-3-yl)methyl]-5-oxo-7-(piperidin-4-yl)-4,5-dihydropyrazolo[1,5-a]pyrimidine-3-carboxamide hydrochloride], with 7.57. Then `CCNC(=O)c1c(C)nn2c(C3CCNCC3)cc(=O)[nH]c12` [Example 317, N-ethyl-2-methyl-5-oxo-7-(piperidin-4-yl)-4,5-dihydropyrazolo[1,5-a]pyrimidine-3-carboxamide hydrochloride], with 7.54; and `CN(Cc1cccnc1)C(=O)c1cnn2c(C3CCNCC3)cc(=O)[nH]c12` [Example 318, N-methyl-5-oxo-7-(piperidin-4-yl)-N-(pyridin-3-ylmethyl)-4,5-dihydropyrazolo[1,5-a]pyrimidine-3-carboxamide hydrochloride], with 7.35; and `Cc1nn2c(C3CCNCC3)cc(=O)[nH]c2c1C(=O)N(C)C` [Example 319, N,N,2-trimethyl-5-oxo-7-(piperidin-4-yl)-4,5-dihydropyrazolo[1,5-a]pyrimidine-3-carboxamide hydrochloride], with 7.12. On to `C[C@@H]1CCN(C(=O)c2cnn3c(C4CCNCC4)cc(=O)[nH]c23)C1` [Example 321, 3-{[(3R)-3-methylpyrrolidin-1-yl]carbonyl}-7-(piperidin-4-yl)pyrazolo[1,5-a]pyrimidin-5(4H)-one hydrochloride], for which the pIC50 was 7.09. With `O=C(c1cnn2c(C3CCNCC3)cc(=O)[nH]c12)N1CCCC1` [Example 322, 7-(piperidin-4-yl)-3-(pyrrolidin-1-ylcarbonyl)pyrazolo[1,5-a]pyrimidin-5(4H)-one hydrochloride], the pIC50 is 7.44.

For `Cc1nn2c(C3CCNCC3)cc(=O)[nH]c2c1C(=O)O` [Example 323, 2-methyl-5-oxo-7-(piperidin-4-yl)-4,5-dihydropyrazolo[1,5-a]pyrimidine-3-carboxylic acid hydrochloride], the pIC50 was 6.34. Then `CC1(C)CCN(Cc2cnn3c(C4CCNCC4)cc(=O)[nH]c23)C1` [Example 324, 3-[(3,3-dimethylpyrrolidin-1-yl)methyl]-7-(piperidin-4-yl)pyrazolo[1,5-a]pyrimidin-5(4H)-one hydrochloride], with 6.82.
